Patent publication US10898469B2, “Imidazolylamide derivative” (Sumitomo Dainippon Pharma Co., Ltd., priority 2016, dated 2021)
Where two headings read alike, the source gives them in different places.

Key:
Format in all cases: cell-based, human
HCT-116 cells [1] = assay: Inhibition test for sphere-forming ability of cancer cells (Test Example 1), HCT-116; conditions: for IC50: concentration for 50% inhibition of cell proliferation, read-out: IC50 (μmol/L) HCT-116 (Sphere IC50 value); for inhibitory effect on the sphere-forming ability of cancer cells: Test Example 1, summary in words, cell line not given (HCT-116, HT-29, FaDu tested)
Procedure, shortened: (§1)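 HCT-116, HT-29 and FaDu cells seeded at 350-800 cells/well on ultra-low attachment plates in serum-free DMEM/F12 with B27, 20 ng/mL EGF, 10 ng/mL bFGF and 5 μg/mL insulin. Compound given at 0.1% DMSO for 4 days; viable cells measured by CellTiter-Glo to give Sphere IC50 (μmol/L).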

HT-29 cells = assay: Inhibition test for sphere-forming ability of cancer cells (Test Example 1), HT-29; conditions: for IC50: concentration for 50% inhibition of cell proliferation, read-out: IC50 (μmol/L) HT-29 (Sphere IC50 value); for (100%-inhibition rate of cell proliferation) at 1 μmol/L, HT-29: value with %
Procedure, shortened: as §1

FaDu cells = assay: Inhibition test for sphere-forming ability of cancer cells (Test Example 1), FaDu; conditions: for IC50: concentration for 50% inhibition of cell proliferation, read-out: IC50 (μmol/L) FaDu (Sphere IC50 value); for (100%-inhibition rate of cell proliferation) at 1 μmol/L, FaDu: value with %
Procedure, shortened: as §1

HCT-116 cells [2] = assay: Inhibition test for sphere-forming ability of cancer cells in the presence of BSA (Test Example 2), HCT-116; conditions: HCT-116 cells, in the presence of 5% BSA, cultured 4 days
Experimental: Human colorectal cancer-derived HCT-116 cells, human colon-adenocarcinoma-derived HT-29 cells, and human pharyngeal cancer-derived FaDu cells were available from American Type Culture Collection (ATCC). HCT-116 cells and HT-29 cells were cultured at 37° C. under 5% CO2 using the McCoy's 5a medium containing 10% fetal bovine serum (FBS) and 1% penicillin/streptomycin, and FaDu cells were cultured at 37° C. under 5% CO2 using the MEM medium containing 10% FBS, 1% non-essential amino acid, 1% sodium pyruvate, 5% bovine serum albumin (BSA), and 1% penicillin/streptomycin. HCT-116 cells, HT-29 cells, and FaDu cells were seeded in a 384 Well Black Clear Bottom Ultra-Low Attachment Microplate (Corning Cat. No. 3827) in an amount of 350-800 cells/well using the DMEM/F12 medium containing 2% B27 supplement (GIBCO), 20 ng/mL epidermal growth factor (EGF) (peprotech), 10 ng/mL basic fibroblast growth factor (bFGF) (peprotech), 5 μg/mL insulin (Sigma), 5% bovine serum albumin (BSA), and 1% penicillin/streptomycin. Each test compound was added into each well to adjust the final concentration of DMSO to 0.1%, and the cells were cultured for 4 days. The number of viable cells in each well was then measured with CellTiter-Glo® Luminescent Cell Viability Assay (Promega) to calculate the concentration of each test compound for 50% inhibition of cell proliferation (Sphere IC50 value; μmol/L).
The experiment of Test Example 2 was performed for each compound of each Example.
The concentration of each test compound for 50% inhibition of cell proliferation (Sphere IC50 value; μmol/L) is shown in the following Table.

[3] = HCT-116 cells, 1 μmol/L, value with %
[4] = Homo sapiens, read-out: (100%-inhibition rate of cell proliferation) at 1 μmol/L, 1 μmol/L, value with %

Compound | IC50 (HCT-116 cells [1]; Homo sapiens, HCT-116 cells) [µmol/L] | IC50 (HT-29 cells; Homo sapiens) [µmol/L] | IC50 (FaDu cells; Homo sapiens) [µmol/L] | IC50 (HCT-116 cells [1]; HCT-116 cells) [µmol/L] | IC50 (FaDu cells) [µmol/L] | IC50 (HT-29 cells) [µmol/L] | further results
CC(=O)Nc1ccc(/C=C/C(=O)Nc2cn(Cc3cccc(Cl)c3)cn2)cc1 [Example 9, (2E)-3-[4-(acetylamino)phenyl]-N-[1-(3-chlorobenzyl)-1H-imidazol-4-yl]prop-2-enamide] | 0.22 | 0.03 | 0.03 | – | – | – | inhibitory effect on the sphere-forming ability of cancer cells (HCT-116 cells [1]): particularly potent inhibitory effect; IC50 (HCT-116 cells [2]; Homo sapiens, HCT-116, 96 h): 0.91 µM
O=C(/C=C/c1ccc(F)cc1)Nc1cn(Cc2cccc(Cl)c2)cn1 [Example 62] | – | – | – | 0.74 | 0.56 | 0.09 | –
O=C(Nc1cn(Cc2cccc(C(F)(F)F)c2)cn1)c1ccc(F)nc1 [Example 226] | – | – | – | – | – | – | (100%-inhibition rate of cell proliferation) at 1 μmol/L, HCT-116 (HCT-116 cells [1]; [3]): 45.7%; (100%-inhibition rate of cell proliferation) at 1 μmol/L, HT-29 (HT-29 cells): 91.7%; (100%-inhibition rate of cell proliferation) at 1 μmol/L, FaDu (FaDu cells): 87.9%
O=C(/C=C/c1ccc([N+](=O)[O-])cc1)Nc1cn(Cc2cccc(Cl)c2)cn1 [Example 68] | – | – | – | 0.07 | 0.01 | < 0.01 | inhibitory effect on the sphere-forming ability of cancer cells (HCT-116 cells [1]): particularly potent inhibitory effect
COc1ccc(C(=O)Nc2cn(Cc3ccc(C(F)(F)F)o3)cn2)cc1OC [Example 171] | – | – | – | – | – | – | (100%-inhibition rate of cell proliferation) at 1 μmol/L, HCT-116 (HCT-116 cells [1]; [3]): 36.4%; (100%-inhibition rate of cell proliferation) at 1 μmol/L, HT-29 (HT-29 cells): 33.8%; (100%-inhibition rate of cell proliferation) at 1 μmol/L, FaDu (FaDu cells): 29.6%
O=C(/C=C/c1cccc(Oc2ccccc2)c1)Nc1cn(Cc2cccc(OC(F)(F)F)c2)cn1 [Example 108] | 3.31 | 3.43 | 9.77 | – | – | – | –
O=C(Nc1cn(Cc2cccc(OC(F)(F)F)c2)cn1)/C(F)=C/c1cccnc1 [Example 111] | 9.31 | 0.83 | 0.99 | – | – | – | –
Cc1cc(/C=C/C(=O)Nc2cn(Cc3cccc(Cl)c3)cn2)oc1C [Example 93] | – | – | – | 0.82 | 0.09 | 4.93 | inhibitory effect on the sphere-forming ability of cancer cells (HCT-116 cells [1]): particularly potent inhibitory effect
Cn1cc(C(=O)Nc2cn(Cc3cccc(Cl)c3)cn2)ccc1=O [Example 243] | – | – | – | – | – | – | viability at 1 µM (HCT-116 cells [1]; Homo sapiens, read-out: (100%-inhibition rate of cell proliferation) at 1 μmol/L, HCT-116 cells, 1 μmol/L, value with %): 23.8%; viability at 1 µM (HT-29 cells; [4]): 19.5%; viability at 1 µM (FaDu cells; [4]): 29%
COc1ccc(C(=O)Nc2cn(Cc3c(F)ccc(C)c3F)cn2)cc1OC [Example 167] | – | – | – | – | – | – | (100%-inhibition rate of cell proliferation) at 1 μmol/L, HCT-116 (HCT-116 cells [1]; [3]): 30.5%; (100%-inhibition rate of cell proliferation) at 1 μmol/L, HT-29 (HT-29 cells): 15.6%; (100%-inhibition rate of cell proliferation) at 1 μmol/L, FaDu (FaDu cells): 59.3%
O=C(/C=C/c1ccc(F)cc1Br)Nc1cn(Cc2cccc(Cl)c2)cn1 [Example 78] | – | – | – | 7.31 | 8.9 | 6.34 | –
CCOc1ccc(/C=C/C(=O)Nc2cn(Cc3cccc(Cl)c3)cn2)cn1 [Example 1, (E)-N-(1-(3-Chlorobenzyl)-1H-imidazol-4-yl)-3-(6-ethoxypyridin-3-yl)acrylamide] | 0.32 | 0.02 | 0.05 | – | – | – | –
O=C(/C=C/c1cnc2ccccc2c1)Nc1cn(Cc2cccc(Cl)c2)cn1 [Example 92] | – | – | – | 1.61 | 0.74 | 0.62 | –
Cc1cccc(/C=C/C(=O)Nc2cn(Cc3c(F)ccc(C)c3F)cn2)c1 [Example 115] | 0.79 | 0.66 | 0.79 | – | – | – | –
CCOc1ccc(/C=C/C(=O)Nc2cn(Cc3cccc(C(F)(F)F)c3)cn2)cn1 [Example 107] | > 10 | 0.04 | 0.07 | – | – | – | –
Nc1ccc(/C=C/C(=O)Nc2cn(Cc3cccc(Cl)c3)cn2)cn1 [Example 19, (E)-3-(6-Aminopyridin-3-yl)-N-(1-(3-chlorobenzyl)-1H-imidazol-4-yl)acrylamide] | 0.89 | 0.6 | 0.66 | – | – | – | –
O=C(Nc1cn(Cc2cccc(Cl)c2)cn1)c1ccc2nccn2c1 [Example 176] | – | – | – | 7.16 | 5.16 | 3.43 | –
O=C(/C=C/c1ccc2[nH]ccc2c1)Nc1cn(Cc2cccc(Cl)c2)cn1 [Example 47, (E)-N-(1-(3-Chlorobenzyl)-1H-imidazol-4-yl)-3-(1H-indol-5-yl)acrylamide] | 0.89 | 0.7 | 0.76 | – | – | – | –
COc1ccc(/C=C/C(=O)Nc2cn(Cc3cccc(Cl)c3)cn2)cc1 [Example 118, (E)-N-(1-(3-Chlorobenzyl)-1H-imidazol-4-yl)-3-(4-methoxyphenyl)acrylamide] | 0.1 | < 0.01 | 0.07 | – | – | – | inhibitory effect on the sphere-forming ability of cancer cells (HCT-116 cells [1]): particularly potent inhibitory effect
Cc1ccccc1/C=C/C(=O)Nc1cn(Cc2cccc(Cl)c2)cn1 [Example 72] | – | – | – | 4.42 | 0.29 | 0.09 | –
Cc1cccc(/C=C/C(=O)Nc2cn(Cc3cccc(OC(F)(F)F)c3)cn2)c1 [Example 110] | 7.21 | 5.67 | 1.92 | – | – | – | –
CC(C)Oc1ccc(C(=O)Nc2cn(Cc3cccc(Cl)c3)cn2)cn1 [Example 207] | – | – | – | 0.83 | 0.89 | 0.67 | –
COc1ccc(C(=O)Nc2cn(Cc3cccc(Oc4ccccc4)c3)cn2)cc1OC [Example 297] | – | – | – | – | – | – | (100%-inhibition rate of cell proliferation) at 1 μmol/L, HCT-116 (HCT-116 cells [1]; [3]): 56.6%; (100%-inhibition rate of cell proliferation) at 1 μmol/L, HT-29 (HT-29 cells): 33.7%; (100%-inhibition rate of cell proliferation) at 1 μmol/L, FaDu (FaDu cells): 31.4%
CCNC(=O)c1ccc(/C=C/C(=O)Nc2cn(Cc3cccc(Cl)c3)cn2)cn1 [Example 26, (E)-5-(3-((1-(3-Chlorobenzyl)-1H-imidazol-4-yl)amino)-3-oxoprop-1-en-1-yl)-N-ethylpicolinamide] | > 10 | 5.83 | 5.49 | – | – | – | –

Further lines, with some results ahead:

IC50 (HCT-116 cells [1]; Homo sapiens, HCT-116 cells) [µmol/L] | IC50 (HT-29 cells; Homo sapiens) [µmol/L] | IC50 (FaDu cells; Homo sapiens) [µmol/L] | IC50 (HCT-116 cells [1]; HCT-116 cells) [µmol/L] | IC50 (FaDu cells) [µmol/L] | IC50 (HT-29 cells) [µmol/L] | Compound | further results
– | – | – | 0.57 | 0.5 | – | COc1ccc(C(=O)Nc2cn(Cc3ccc(Cl)cc3)cn2)cc1OC [Example 158] | IC50 (HCT-116 cells [2]): 4.22 µM
– | – | – | 0.07 | 0.07 | – | COc1ccc(C(=O)Nc2cn(Cc3ccc(F)c(Cl)c3)cn2)cc1OC [Example 160] | inhibitory effect on the sphere-forming ability of cancer cells (HCT-116 cells [1]): particularly potent inhibitory effect; IC50 (HCT-116 cells [2]): 0.61 µM
– | – | – | 0.04 | < 0.01 | – | COc1ccc(C(=O)Nc2cn(Cc3ccc(F)c(C(F)(F)F)c3)cn2)cc1OC [Example 161] | inhibitory effect on the sphere-forming ability of cancer cells (HCT-116 cells [1]): particularly potent inhibitory effect; IC50 (HCT-116 cells [2]): 0.41 µM
– | – | – | 0.06 | 0.07 | – | COc1ccc(C(=O)Nc2cn(Cc3cc(F)cc(Cl)c3)cn2)cc1OC [Example 159] | inhibitory effect on the sphere-forming ability of cancer cells (HCT-116 cells [1]): particularly potent inhibitory effect; IC50 (HCT-116 cells [2]): 0.61 µM
– | – | – | 0.06 | 0.06 | – | COc1ccc(C(=O)Nc2cn(Cc3cc(F)cc(C(F)(F)F)c3)cn2)cc1OC [Example 162] | inhibitory effect on the sphere-forming ability of cancer cells (HCT-116 cells [1]): particularly potent inhibitory effect; IC50 (HCT-116 cells [2]): 0.51 µM
– | – | – | 7.31 | 8.64 | 3.74 | O=C(Nc1cn(Cc2cccc(C(F)(F)F)c2)cn1)c1ccc(CC(F)F)nc1 [Example 187] | –
– | – | – | 0.81 | 0.79 | 0.82 | CCOc1ccc(C(=O)Nc2cn(Cc3cccc(C(F)(F)F)c3)cn2)cn1 [Example 210] | –
– | – | – | > 10 | 9.74 | 4.81 | O=C(Nc1cn(Cc2cccc(OC(F)(F)F)c2)cn1)c1ccc(OCC(F)(F)F)nc1 [Example 222] | –
– | – | – | 0.29 | 0.22 | – | O=C(Nc1cn(Cc2cc(F)c(F)c(F)c2)cn1)c1ccc(CO)cc1 [Example 175] | IC50 (HCT-116 cells [2]): 0.77 µM
– | – | – | 5.31 | 3.52 | 0.9 | O=C(Nc1cn(Cc2cccc(C(F)(F)F)c2)cn1)c1ccc(OCC(F)(F)F)nc1 [Example 214] | –
